Assay results taken from the NIST ThermoML archive (doi:10.1016/j.jct.2019.03.007).
Values joined by “and” are separate entries in the source; they are usually repeats but may differ in a detail not shown here. Identical values can stand only once. Numbers after ± are expanded uncertainties.

Assays:
[1] = Molar enthalpy of transition or fusion; conditions: DSC
[2] = for molar volume: 100 kPa, X-ray diffraction; for Triple point temperature: DSC

O=[N+]([O-])[O-].O=[N+]([O-])[O-].[Ca+2] [calcium nitrate]
Conditions | Molar enthalpy of transition or fusion, [1] [kcal/mol] | Triple point temperature, [2] [K]
Crystal 1 | 7.98 ± 0.502 | 823 ± 4
Crystal 2 | 0.0289 ± 0.0263 | 290 ± 4

[2], Crystal 1
Conditions | molar volume
298 K | 6.616e-05 ± 5.4e-08 m3/mol and 6.614e-05 ± 5.4e-08 m3/mol
323 K | 6.637e-05 ± 5.4e-08 m3/mol and 6.638e-05 ± 5.4e-08 m3/mol
348 K | 6.658e-05 ± 5.4e-08 m3/mol
373 K | 6.68e-05 ± 5.4e-08 m3/mol
398 K | 6.702e-05 ± 5.4e-08 m3/mol and 6.703e-05 ± 5.4e-08 m3/mol
423 K | 6.725e-05 ± 5.4e-08 m3/mol and 6.726e-05 ± 5.4e-08 m3/mol
448 K | 6.748e-05 ± 5.4e-08 m3/mol and 6.749e-05 ± 5.4e-08 m3/mol
473 K | 6.771e-05 ± 5.4e-08 m3/mol and 6.773e-05 ± 5.4e-08 m3/mol
498 K | 6.794e-05 ± 5.5e-08 m3/mol and 6.797e-05 ± 5.5e-08 m3/mol
523 K | 6.818e-05 ± 5.5e-08 m3/mol and 6.821e-05 ± 5.5e-08 m3/mol
548 K | 6.845e-05 ± 5.5e-08 m3/mol and 6.842e-05 ± 5.5e-08 m3/mol
573 K | 6.871e-05 ± 5.5e-08 m3/mol and 6.866e-05 ± 5.5e-08 m3/mol
598 K | 6.9e-05 ± 5.5e-08 m3/mol and 6.89e-05 ± 5.5e-08 m3/mol
623 K | 6.92e-05 ± 5.5e-08 m3/mol and 6.915e-05 ± 5.5e-08 m3/mol
648 K | 6.945e-05 ± 5.6e-08 m3/mol and 6.94e-05 ± 5.5e-08 m3/mol
673 K | 6.97e-05 ± 5.6e-08 m3/mol and 6.967e-05 ± 5.6e-08 m3/mol
698 K | 6.994e-05 ± 5.6e-08 m3/mol and 6.992e-05 ± 5.6e-08 m3/mol
723 K | 7.019e-05 ± 5.6e-08 m3/mol
